According to patent US20190233442A1, “SELECTIVE ESTROGEN RECEPTOR DOWN-REGULATORS (SERDS)” (Xavier University of Louisiana, priority 2016, published 2019):

Experiments:
[1] = biological target: T1, estrogen receptor α (ERα) (Homo sapiens, UniProt P03372); assay: Binding to estrogen receptor α; settings: FIG. 15
T1 construct: endogenous in cells; host or cells: MCF-7
T1 sequence (P03372 1-595): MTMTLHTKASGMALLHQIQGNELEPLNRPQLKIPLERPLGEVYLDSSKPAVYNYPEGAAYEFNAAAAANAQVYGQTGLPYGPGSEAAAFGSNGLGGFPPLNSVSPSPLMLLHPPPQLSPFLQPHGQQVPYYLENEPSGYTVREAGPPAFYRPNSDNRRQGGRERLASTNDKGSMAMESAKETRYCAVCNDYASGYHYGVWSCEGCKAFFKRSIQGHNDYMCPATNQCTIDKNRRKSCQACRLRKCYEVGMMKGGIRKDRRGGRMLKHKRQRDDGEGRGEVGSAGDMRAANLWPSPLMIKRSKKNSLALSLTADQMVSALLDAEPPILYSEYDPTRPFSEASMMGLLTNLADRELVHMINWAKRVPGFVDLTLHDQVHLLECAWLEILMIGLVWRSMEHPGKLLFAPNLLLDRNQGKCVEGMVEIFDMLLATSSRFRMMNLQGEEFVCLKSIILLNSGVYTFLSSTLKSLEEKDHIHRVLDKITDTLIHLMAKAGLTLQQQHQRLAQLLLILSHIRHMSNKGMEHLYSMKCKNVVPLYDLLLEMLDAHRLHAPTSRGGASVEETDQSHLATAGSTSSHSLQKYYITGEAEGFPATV

MCF-7 = assay: Cytotoxicity in breast cancer cell lines (MCF-7); type: cell-based; settings: MCF-7 cells
[2] = biological target: T1, estrogen receptor α (ERα); assay: Western blot of ER protein expression (down-regulation); type: cell-based
MCF-7/TamR = assay: Cytotoxicity in breast cancer cell lines (MCF-7/TamR); type: cell-based; settings: MCF-7/TamR cells
[3] = cited from earlier work
T47D/PKCα = assay: Cytotoxicity in breast cancer cell lines (T47D/PKCα); type: cell-based; settings: T47D/PKCα cells
BT474 = assay: Cytotoxicity in breast cancer cell lines (BT474); type: cell-based; settings: BT474 cells

Molecule | binding to estrogen receptor α (ERα) [1] | IC50 (MCF-7; Homo sapiens, MCF7) | IC50 (MCF-7/TamR; Homo sapiens, MCF7) | ER protein expression ([2]; FIG. 14, cell line not stated) | IC50 (T47D/PKCα; Homo sapiens) | IC50 (BT474; Homo sapiens, BT-474) | further results
CCC(=C(c1ccc(/C=C/C(=O)O)cc1)c1ccc(B(O)O)cc1)c1ccccc1 [SERD 4] | high affinity | 1.8 µM | 1.2 µM | – | – | – | ER protein expression ([2]; MCF-7 cells, FIG. 13): dramatically downregulated
C[C@]12CC[C@@H]3c4ccc(O)cc4C[C@@H](CCCCCCCCC[S+]([O-])CCCC(F)(F)C(F)(F)F)[C@H]3[C@@H]1CC[C@@H]2O (some centres unmarked) [Fulvestrant] | – | – | – | dramatically downregulated | – | – | peak blood concentration ([3]; higher dose of 500 mg, FINDER1 and FINDER2 clinical trials): < 25 ng/mL; time to reach steady state concentration in patient plasma ([3]; higher dose of 500 mg): 1 month; bioavailability if administered orally ([3]; oral): very poor bioavailability; time to reach steady state serum concentration ([3]; standard intramuscular (i.m.) injection): 3-4 months
4-Hydroxytamoxifen [reference compound] | – | – | – | – | – | – | IC50 (MCF-7): 0.0033 µM; IC50 (T47D/PKCα): 0.54 µM; IC50 (BT474): 1.43 µM; IC50 (MCF-7/TamR): 21.1 µM
C[C@]12CC[C@@H]3c4ccc(B(O)O)cc4C[C@@H](CCCCCCCCC[S+]([O-])CCCC(F)(F)C(F)(F)F)[C@H]3[C@@H]1CC[C@@H]2O (some centres unmarked) [SERD 9] | high affinity | 0.0032 µM | 0.044 µM | dramatically downregulated | 0.37 µM | 0.39 µM | –
CC/C(=C(\c1ccc(/C=C/C(=O)O)cc1)c1ccc(B2OC(C)(C)C(C)(C)O2)cc1)c1ccccc1 [SERD 6] | – | 7.73 µM | 4.53 µM | – | 6.54 µM | 80.5 µM | –
